Test results reported in US20210300936A1, “PYRAZOLOTRIAZOLOPYRIMIDINE DERIVATIVES AS A2A RECEPTOR ANTAGONIST” (BEIGENE, LTD., priority 2018, published 2021).

Tests used:
[1] = target: T1, human adenosine receptor A1 (A1R) (Homo sapiens, UniProt P30542); experiment: Adenosine receptor binding assay, radioligand competitive binding, [3H]DPCPX; details: membrane homogenates from CHO cells transfected with A1R, 1 nM [3H]DPCPX
T1 construct: host or cells: CHO cells (membrane homogenates)
T1 sequence (P30542 1-326): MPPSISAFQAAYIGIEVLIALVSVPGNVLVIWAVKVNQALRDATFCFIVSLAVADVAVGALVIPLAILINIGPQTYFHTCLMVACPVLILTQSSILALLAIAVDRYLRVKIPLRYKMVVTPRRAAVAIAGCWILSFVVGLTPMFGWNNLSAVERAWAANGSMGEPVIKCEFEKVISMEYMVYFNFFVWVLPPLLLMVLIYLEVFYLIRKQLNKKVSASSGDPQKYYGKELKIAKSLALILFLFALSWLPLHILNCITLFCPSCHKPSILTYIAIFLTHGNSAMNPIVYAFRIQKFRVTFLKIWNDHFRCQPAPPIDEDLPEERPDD
Method: (§1) Binding affinity of test compounds to four human adenosine receptors, A1, A2A, A2B and A3 was determined in radioligand competitive binding assay (conducted by Cerep, France) using following protocols. For A1 receptor (A1R), membrane homogenates from CHO cells transfected with A1R were incubated for 60 min at 22° C. with 1 nM [3H]DPCPX in the absence or presence of the test compound in a buffer containing 50 mM Tris-HCl (pH 7.4), 5 mM MgCl2, 1 mM EDTA/Tris and 2 UI/mL ADA. For A2AR, membrane homogenates from HEK293 cells transfected with A2AR were incubated for 120 min at 22° C. with 6 nM [3H]CGS21680 in the absence or presence of the test compound in a buffer containing 50 mM Tris-HCl (pH 7.4), 10 mM MgCl2, and 2 UI/mL ADA. For A2B receptor (A2BR), membrane homogenates from HEK293 cells transfected with A2BR were incubated for 60 min at 22° C. with 5 nM [3H]CPX in the absence or presence of the test compound in a buffer containing 10 mM Hepes/Tris (pH 7), 1 mM MgCl2, and 1 mM EDTA. For A3 receptor (A3R), membrane homogenates from HEK293 cells transfected with A3R were incubated for 120 min at 22° C. with 0.15 nM [125I]AB-MECA in the absence or presence of the test compound in a buffer containing 50 mM Tris-HCl (pH 7.4), 5 mM MgCl2, 1 mM EDTA and 2 UI/mL ADA. Nonspecific binding was determined in the presence of unlabeled 1 μM DPCPX, 10 μM NECA, 100 μM NECA, and 1 μM IB-MECA in A1R, A2AR, A2BR, A3R binding assays, respectively. Following incubation, the samples are rapidly filtered and washed with ice-cold 50 mM Tris-HCl. Then filters are dried and counted for radioactivity in a scintillation counter (Topcount, Packard) using a scintillation cocktail (Microscint 0, Packard). Duplicate experiments were performed for each assay. The results are expressed as a percent inhibition of control radioligand specific binding.

[2] = target: human A2A receptor (A2AR) (Homo sapiens, UniProt P29274); experiment: Luciferase reporter assay (HEK293-A2AR-luc2p/CRE/Hygro cells, 3 nM CGS21680); assay type: cell-based; details: 3 nM CGS21680, 5 h incubation
Summary of the method: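 HEK293 cells stably expressing A2AR with a CRE-luc2P reporter were seeded in 1% FBS with 1 U/mL adenosine deaminase. After 18 h, cells got 3 nM CGS21680 plus antagonist at 0.1–10000 nM for 5 h, followed by a luciferase readout. IC50 is relative to the 3 nM CGS21680 signal, set as 100%.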

[3] = target: T2, human adenosine receptor A2A (A2AR) (Homo sapiens, UniProt P29274); experiment: Adenosine receptor binding assay, radioligand competitive binding, [3H]CGS21680; details: membrane homogenates from HEK293 cells transfected with A2AR, 6 nM [3H]CGS21680
T2 construct: host or cells: HEK293 cells (membrane homogenates)
Method: as §1

human A2A receptor (A2AR), sequence (P29274 whole entry): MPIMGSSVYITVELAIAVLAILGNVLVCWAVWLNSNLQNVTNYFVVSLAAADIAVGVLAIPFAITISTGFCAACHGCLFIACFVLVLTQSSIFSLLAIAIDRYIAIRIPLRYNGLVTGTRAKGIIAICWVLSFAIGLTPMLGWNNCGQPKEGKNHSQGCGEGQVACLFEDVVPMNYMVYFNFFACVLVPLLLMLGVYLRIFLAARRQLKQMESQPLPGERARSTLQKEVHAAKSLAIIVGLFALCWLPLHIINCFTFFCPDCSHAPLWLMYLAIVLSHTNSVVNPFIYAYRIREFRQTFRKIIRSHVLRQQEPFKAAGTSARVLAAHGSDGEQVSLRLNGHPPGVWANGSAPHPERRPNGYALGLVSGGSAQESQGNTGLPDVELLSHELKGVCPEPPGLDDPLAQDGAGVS
T2 sequence (P29274 whole entry): as above

Row | Ki [1] [nM] | IC50 [2] [nM] | Ki [3] [nM] | SMILES
1 | 1130 | 8 | 3.1 | COCCOc1ccc(N2CCN(C(=O)[C@](C)(c3ccccc3)n3ncc4c3nc(N)n3nc(-c5ccco5)nc43)CC2)cc1 [Compound A63a, (S)-2-(5-amino-2-(furan-2-yl)-7H-pyrazolo[4,3-e][1,2,4]triazolo[1,5-c]pyrimidin-7-yl)-1-(4-(4-(2-methoxyethoxy)phenyl)piperazin-1-yl)-2-phenylpropan-1-one]
2 | 1200 | 78.8 | 8.5 | CCCC(C(=O)N1CCN(c2ccc(OCCOC)cc2F)CC1)n1ncc2c1nc(N)n1nc(-c3ccco3)nc21 (single isomer, unassigned) [Compound A24b]
3 | 337 | – | – | COCCOc1ccc(N2CCN(CCn3ncc4c3nc(N)n3nc(-c5ccco5)nc43)CC2)cc1 [Preladenant, preladenant, reference compound]
4 | – | 648 | – | COCCOc1ccc(N2CCN(C(=O)C(C(C)C)n3cc4c(nc(N)n5nc(-c6ccco6)nc45)n3)CC2)cc1 (stereo not shown) [Compound C2, 2-(5-amino-2-(furan-2-yl)-8H-pyrazolo[4,3-e][1,2,4]triazolo[1,5-c]pyrimidin-8-yl)-1-(4-(4-(2-methoxyethoxy)phenyl)piperazin-1-yl)-3-methylbutan-1-one]
5 | – | 2.2 | – | COCCOc1ccc(N2CCN(C(=O)[C@@](C)(c3ccccc3)n3ncc4c3nc(N)n3nc(-c5ccco5)nc43)CC2)c(F)c1 [Compound A64b, (R)-2-(5-amino-2-(furan-2-yl)-7H-pyrazolo[4,3-e][1,2,4]triazolo[1,5-c]pyrimidin-7-yl)-1-(4-(2-fluoro-4-(2-methoxyethoxy)phenyl)piperazin-1-yl)-2-phenylpropan-1-one]
6 | – | 2 | – | COCCOc1ccc(N2CCN(C(=O)C(C)(c3ccccc3F)n3ncc4c3nc(N)n3nc(-c5ccco5)nc43)CC2)cc1 (stereo not shown) [Compound A87, 2-(5-amino-2-(furan-2-yl)-7H-pyrazolo[4,3-e][1,2,4]triazolo[1,5-c]pyrimidin-7-yl)-2-(2-fluorophenyl)-1-(4-(4-(2-methoxyethoxy)phenyl)piperazin-1-yl)propan-1-one]
7 | – | 246 | – | CC(C)CC(C(=O)N1CCN(c2ccc(F)cc2F)CC1)n1ncc2c1nc(N)n1nc(-c3ccco3)nc21 (single isomer, unassigned) [Compound A22a]
8 | – | 7.7 | – | COCCOc1ccc(N2CCN(C(=O)C(c3cccc(C(F)(F)F)c3)n3ncc4c3nc(N)n3nc(-c5ccco5)nc43)CC2)cc1 (stereo not shown) [Compound A36, 2-(5-amino-2-(furan-2-yl)-7H-pyrazolo[4,3-e][1,2,4]triazolo[1,5-c]pyrimidin-7-yl)-1-(4-(4-(2-methoxyethoxy)phenyl)piperazin-1-yl)-2-(3-(trifluoromethyl)phenyl)ethan-1-one]
9 | – | 17.5 | – | COCCOc1ccc(N2CCN(C(=O)[C@](C)(c3ccccc3)n3ncc4c3nc(N)n3nc(-c5ccco5)nc43)CC2)c(F)c1 [Compound A64a, (S)-2-(5-amino-2-(furan-2-yl)-7H-pyrazolo[4,3-e][1,2,4]triazolo[1,5-c]pyrimidin-7-yl)-1-(4-(2-fluoro-4-(2-methoxyethoxy)phenyl)piperazin-1-yl)-2-phenylpropan-1-one]
10 | – | 5.8 | – | CCCCC(C(=O)N1CCN(c2ccc(OCCNC)cc2)CC1)n1ncc2c1nc(N)n1nc(-c3ccco3)nc21 (stereo not shown) [Compound A35, 2-(5-amino-2-(furan-2-yl)-7H-pyrazolo[4,3-e][1,2,4]triazolo[1,5-c]pyrimidin-7-yl)-1-(4-(4-(2-(methylamino)ethoxy)phenyl)piperazin-1-yl)hexan-1-one]
11 | – | 4.8 | – | CNCCOc1ccc(N2CCN(C(=O)C(C)(c3ccccc3)n3ncc4c3nc(N)n3nc(-c5ccco5)nc43)CC2)cc1 (stereo not shown) [Compound A107, 2-(5-amino-2-(furan-2-yl)-7H-pyrazolo[4,3-e][1,2,4]triazolo[1,5-c]pyrimidin-7-yl)-1-(4-(4-(2-(methylamino)ethoxy)phenyl)piperazin-1-yl)-2-phenylpropan-1-one]
12 | – | 3 | – | Nc1nc2c(cnn2C(C(=O)N2CCc3ccc(Cl)cc3C2)c2ccccc2)c2nc(-c3ccco3)nn12 (stereo not shown) [Compound B5, 2-(5-amino-2-(furan-2-yl)-7H-pyrazolo[4,3-e][1,2,4]triazolo[1,5-c]pyrimidin-7-yl)-1-(7-chloro-3,4-dihydroisoquinolin-2(1H)-yl)-2-phenylethan-1-one]
13 | – | 96.9 | – | COCCOc1ccc(N2CCN(C(=O)C(C(C)C)n3ncc4c3nc(N)n3nc(-c5ccco5)nc43)CC2)cc1 (stereo not shown) [Compound A2, 2-(5-amino-2-(furan-2-yl)-7H-pyrazolo[4,3-e][1,2,4]Triazolo[1,5-c]pyrimidin-7-yl)-1-(4-(4-(2-methoxyethoxy)phenyl)piperazin-1-yl)-3-methylbutan-1-one]
14 | – | 13.7 | – | CN(C)C(=O)c1ccccc1N1CCN(C(=O)C(C)(c2ccccc2)n2ncc3c2nc(N)n2nc(-c4ccco4)nc32)CC1 (stereo not shown) [Compound A96, 2-(4-(2-(5-amino-2-(furan-2-yl)-7H-pyrazolo[4,3-e][1,2,4]triazolo[1,5-c]pyrimidin-7-yl)-2-phenylpropanoyl)piperazin-1-yl)-N,N-dimethylbenzamide]
15 | – | 1.3 | – | CC(O)COc1ccc(N2CCN(C(=O)C(c3ccccc3)n3ncc4c3nc(N)n3nc(-c5ccco5)nc43)CC2)cc1 (stereo not shown) [Compound A62, 2-(5-amino-2-(furan-2-yl)-7H-pyrazolo[4,3-e][1,2,4]triazolo[1,5-c]pyrimidin-7-yl)-1-(4-(4-(2-hydroxypropoxy)phenyl)piperazin-1-yl)-2-phenylethan-1-one]
16 | – | 1 | – | COCCOc1ccc(N2CCN(C(=O)C(c3ccccc3)n3ncc4c3nc(N)n3nc(-c5ccco5)nc43)C(C)C2)cc1 (single isomer, unassigned) [Compound A50b]
17 | – | 8.5 | – | COCCOc1ccc(N2CCN(C(=O)C(C)(c3ccccc3)n3ncc4c3nc(N)n3nc(-c5ccco5)nc43)CC2)c(OC)c1 (stereo not shown) [Compound A106, 2-(5-amino-2-(furan-2-yl)-7H-pyrazolo[4,3-e][1,2,4]triazolo[1,5-c]pyrimidin-7-yl)-1-(4-(2-methoxy-4-(2-methoxyethoxy)phenyl)piperazin-1-yl)-2-phenylpropan-1-one]
18 | – | 19.1 | – | C[C@@](C(=O)N1CCN(c2ccc(OCCCN3CCOCC3)cc2)CC1)(c1ccccc1)n1ncc2c1nc(N)n1nc(-c3ccco3)nc21 [Compound A76a, (S)-2-(5-amino-2-(furan-2-yl)-7H-pyrazolo[4,3-e][1,2,4]triazolo[1,5-c]pyrimidin-7-yl)-1-(4-(4-(3-morpholinopropoxy)phenyl)piperazin-1-yl)-2-phenylpropan-1-one]
19 | – | 21.6 | – | COCCOCCOc1ccc(N2CCN(C(=O)C(C3CC3)n3ncc4c3nc(N)n3nc(-c5ccco5)nc43)CC2)cc1 (stereo not shown) [Compound A21, 2-(5-amino-2-(furan-2-yl)-7H-pyrazolo[4,3-e][1,2,4]triazolo[1,5-c]pyrimidin-7-yl)-2-cyclopropyl-1-(4-(4-(2-(2-methoxyethoxy)ethoxy)phenyl)piperazin-1-yl)ethan-1-one]
20 | – | 2 | – | Nc1nc2c(cnn2C(C(=O)N2CCc3cc(F)ccc3C2)c2ccccc2)c2nc(-c3ccco3)nn12 (stereo not shown) [Compound B7, 2-(5-amino-2-(furan-2-yl)-7H-pyrazolo[4,3-e][1,2,4]triazolo[1,5-c]pyrimidin-7-yl)-1-(6-fluoro-3,4-dihydroisoquinolin-2(1H)-yl)-2-phenylethan-1-one]
21 | – | 43.5 | – | CCC(C(=O)N1CCN(c2ccc(OCCOC)cc2)CC1)n1ncc2c1nc(N)n1nc(-c3ccco3)nc21 (stereo not shown) [Compound A4, 2-(5-amino-2-(furan-2-yl)-7H-pyrazolo[4,3-e][1,2,4]triazolo[1,5-c]pyrimidin-7-yl)-1-(4-(4-(2-methoxyethoxy)phenyl)piperazin-1-yl)butan-1-one]
